Measurements taken from patent US10624342B2, “Synergistic weed control from applications of haloxyfop and ALS inhibitor herbicides” (priority 2014, dated 2020).
“And” between values parts separate entries of the source, which are not always exact repeats. Equal entries are not always repeated.

Key:
Assay type in all cases: in vivo
[1] = system: small flower flatsedge, Cyperus difformis; assay: Field trial in rice, foliar post-emergence visual weed control: small flower flatsedge; conditions: CYPDI; for Mean % weed control: 14DAA; for % Visual Weed Control: 7DAA
Description: (§1) Field trials were conducted in Taiwan, China and Colombia with applications made in the area of naturally occurring weed populations. All treatments were applied using a randomized complete block trial design, with 3 to 4 replications per treatment. Plot size varied and was 1-6 meters×2-12 meters (width×length). Rice was seeded into the plots, and the rice crop was maintained as a normal commercial crop with appropriate fertilizer and maintenance treatments as needed. Rice size at application varied from the 2 to 4 leaf stage, and weeds were at the 2 to 5 leaf stage. All treatments were foliar applied as post-emergence treatments using backpack sprayers with compressed air or carbon dioxide (CO2) propellant. Spray pressure varied from 25 to 35 pounds per square inch (psi). Spray nozzles used were flat fan, with 1 to 4 nozzle booms used to apply from 200 to 450 L/ha of water as spray diluent. All treatments were mixed in water at appropriately formulated product rates to achieve the desired rates as shown based on a unit area of application (hectare). Commercially available products were used to make all applications, consisting of FENCER® 250D and BENGALA® 250D (25 grams active ingredient per liter (g ai/L) penoxsulam in an oil dispersion formulation); GALLANT™ SUPER and VERDICT™ SUPER EC (108 g ai/L haloxyfop-R-methyl in an emulsifiable concentrate formulation); GULLIVER® (500 grams active ingredient per kilograms (g ai/kg) WP (wettable powder)) and NOMINEE® SL (100 g ai/L bispyribac-sodium wettable powder).
(§2) Treatments consisted of haloxyfop-R-methyl and an ALS mode of action herbicide (penoxsulam, bispyribac-sodium, bensulfuron-methyl, or azimsulfuron), applied alone or in combination.
(§3) The treated plots and control plots were rated blind at various intervals after application. Ratings were based on a scale of 0-100%, as discussed above, wherein 0% indicates complete growth of the undesired vegetation and 100% indicates complete prevention of the undesired vegetation.
(§4) Colby's equation was used to determine the herbicidal effects expected from the mixtures, as described above. The results were measured at the evaluation intervals provided in Tables 1-5 after the first application of the compositions. […] The combinations tested, application rates and ratios employed, plant species tested, and results are included in Tables 1-5 below.
(§5) Colby's equation was used to determine the herbicidal effects expected from the mixtures (S. R. Colby, Calculating Synergistic and Antagonistic Responses of Herbicide Combinations, WEEDS 15, p. 22 (1967)). A t-test (alpha=0.05) between Colby predictions and observed combinations was used to test for significant differences indicating synergy or antagonism using replicate data. The results presented in Tables 1-5 were significant according to the described criteria.

[2] = system: Chinese sprangletop, Leptochloa chinensis; assay: Field trial in rice, foliar post-emergence visual weed control: Chinese sprangletop; conditions: LEFCH
Description: as §1, §2, §3, §4, §5

[3] = system: itch grass, Rottboellia exaltata; assay: Field trial in rice, foliar post-emergence visual weed control: itch grass; conditions: ROOEX
Description: as §1, §2, §3, §4, §5

[4] = system: crabgrass, Digitaria horizontalis; assay: Field trial in rice, foliar post-emergence visual weed control: crabgrass; conditions: DIGHO
Description: as §1, §2, §3, §4, §5

[5] = system: rice flatsedge, Cyperus iria; assay: Field trial in rice, foliar post-emergence visual weed control: rice flatsedge; conditions: CYPIR
Description: as §1, §2, §3, §4, §5

[6] = system: bullgrass, Eleusine indica; assay: Field trial in rice, foliar post-emergence visual weed control: bullgrass; conditions: ELEIN, 7DAA
Description: as §1, §2, §3, §4
as §5, with “The results presented in Tables 1-5 were significant according to the described criteria.” left out

[7] = system: monochoria, Monochoria vaginalis; assay: Field trial in rice, foliar post-emergence visual weed control: monochoria; conditions: MOOVA, 7DAA
Description: as §1, with “Commercially available products were used to make all applications, consisting of FENCER® 250D and BENGALA® 250D (25 grams active ingredient per liter (g ai/L) penoxsulam in an oil dispersion formulation); GALLANT™ SUPER and VERDICT™ SUPER EC (108 g ai/L haloxyfop-R-methyl in an emulsifiable concentrate formulation); GULLIVER® (500 grams active ingredient per kilograms (g ai/kg) WP (wettable powder)) and NOMINEE® SL (100 g ai/L bispyribac-sodium wettable powder).” left out
Colby's equation was used to determine the herbicidal effects expected from the mixtures, as described above. The results were measured at the evaluation intervals provided in Tables 1-5 after the first application of the compositions. […]

[8] = system: barnyardgrass, Echinochloa crus-galli; assay: Field trial in rice, foliar post-emergence visual weed control: barnyardgrass; conditions: ECHCG
Description: as §1, §2, §3, §4, §5

Structure (SMILES): COc1cnc(OC)n2nc(NS(=O)(=O)c3c(OCC(F)F)cccc3C(F)(F)F)nc12 [Penoxsulam]
- Mean % weed control ([1]; 10 g ai/ha alone): 93.3%
- Mean % weed control ([2]; 7DAA, 10 g ai/ha alone): 0.0%
- Mean % weed control ([2]; 7DAA, 20 g ai/ha alone): 0.0%
- Mean % weed control ([2]; 7DAA, 30 g ai/ha alone): 0.0%
- Mean % weed control ([2]; 14DAA, 10 g ai/ha alone): 0.0%
- Mean % weed control ([2]; 14DAA, 20 g ai/ha alone): 0.0%
- Mean % weed control ([2]; 14DAA, 30 g ai/ha alone): 0.0%
- Mean % weed control ([2]; 28DAA, 30 g ai/ha alone): 0.0%
- Mean % weed control ([3]; 7DAA, 32 g ai/ha alone): 3.3%
- Mean % weed control ([3]; 15DAA, 8 g ai/ha alone): 0.0%
- Mean % weed control ([3]; 28DAA, 8 g ai/ha alone): 0.0%
- Mean % weed control ([3]; 28DAA, 16 g ai/ha alone): 12.5%
- Mean % weed control ([4]; 7DAA, 8 g ai/ha alone): 0.0%
- Mean % weed control ([4]; 7DAA, 16 g ai/ha alone): 0.0%
- Mean % weed control ([4]; 15DAA, 8 g ai/ha alone): 0.0%
- Mean % weed control ([4]; 15DAA, 16 g ai/ha alone): 0.0%
- Mean % weed control ([4]; 15DAA, 32 g ai/ha alone): 0.0%
- Mean % weed control ([5]; 7DAA, 8 g ai/ha alone): 62.0%
- Mean % weed control ([5]; 7DAA, 32 g ai/ha alone): 87.0%
- Mean % weed control ([5]; 15DAA, 8 g ai/ha alone): 85.0%
- Mean % weed control ([6]; 8 g ai/ha alone): 0.0%
- Mean % weed control ([6]; 16 g ai/ha alone): 0.0%
- Mean % weed control ([6]; 32 g ai/ha alone): 0.0%
- Mean % weed control ([7]; 5 g ai/ha alone): 90.0%
- Mean % weed control ([8]; 7DAA, 10 g ai/ha alone): 63.3%
- Mean % weed control ([8]; 7DAA, 15 g ai/ha alone): 95.7%
- Mean % weed control ([8]; 21DAA, 15 g ai/ha alone): 93.3%
- Mean % weed control ([8]; 28DAA, 7.5 g ai/ha alone): 53.3%
- Mean % weed control ([8]; 28DAA, 10 g ai/ha alone): 56.7%
- Mean % weed control ([8]; 28DAA, 15 g ai/ha alone): 91.7%
- Mean % weed control ([8]; 28DAA, 30 g ai/ha alone): 98.3%

Structure (SMILES): COC(=O)c1ccccc1CS(=O)(=O)NC(=O)Nc1nc(OC)cc(OC)n1 [Bensulfuron-Methyl, bensulfuron-methyl]
- % Visual Weed Control ([1]; 10 g ai/ha alone): 90%
- % Visual Weed Control ([1]; 20 g ai/ha alone): 92%
- % Visual Weed Control ([8]; 28DAA, 20 g ai/ha alone (Table 4)): 0%
- % Visual Weed Control ([8]; 28DAA, 40 g ai/ha alone (Table 4)): 23%

Structure (SMILES): COC(=O)C(C)Oc1ccc(Oc2ncc(C(F)(F)F)cc2Cl)cc1 [Haloxyfop-methyl (R), haloxyfop-R-methyl]
- % Visual Weed Control ([1]; 2 g ai/ha alone): 0%
- % Visual Weed Control ([1]; 8 g ai/ha alone): 0%
- Mean % weed control ([1]; 16 g ai/ha alone): 0.0%
- Mean % weed control ([1]; 32 g ai/ha alone): 0.0%
- Mean % weed control ([2]; 7DAA, 8 g ai/ha alone): 0.0%
- Mean % weed control ([2]; 14DAA, 2 g ai/ha alone): 0.0%
- Mean % weed control ([2]; 14DAA, 4 g ai/ha alone): 0.0%
- Mean % weed control ([2]; 28DAA, 8 g ai/ha alone): 0.0%
- Mean % weed control ([3]; 7DAA, 8 g ai/ha alone): 11.7%
- Mean % weed control ([3]; 15DAA, 4 g ai/ha alone): 0.0%
- Mean % weed control ([3]; 15DAA, 16 g ai/ha alone): 77.5%
- Mean % weed control ([3]; 28DAA, 4 g ai/ha alone): 0.0%
- Mean % weed control ([4]; 7DAA, 8 g ai/ha alone): 71.7%
- Mean % weed control ([4]; 15DAA, 4 g ai/ha alone): 35.0%
- Mean % weed control ([5]; 7DAA, 8 g ai/ha alone): 0.0%
- Mean % weed control ([5]; 7DAA, 16 g ai/ha alone): 0.0%
- Mean % weed control ([5]; 15DAA, 8 g ai/ha alone): 0.0%
- Mean % weed control ([5]; 15DAA, 16 g ai/ha alone): 11.3%
- Mean % weed control ([6]; 4 g ai/ha alone): 21.7%
- Mean % weed control ([7]; 16 g ai/ha alone): 0.0%
- Mean % weed control ([8]; 7DAA, 4 g ai/ha alone): 0.0%
- Mean % weed control ([8]; 7DAA, 8 g ai/ha alone): 0.0%
- Mean % weed control ([8]; 7DAA, 27 g ai/ha alone): 0.0%
- Mean % weed control ([8]; 14DAA, 8 g ai/ha alone): 0.0%
- Mean % weed control ([8]; 21DAA, 27 g ai/ha alone): 0.0%
- Mean % weed control ([8]; 28DAA, 4 g ai/ha alone): 0.0%
- % Visual Weed Control ([8]; 28DAA, 4 g ai/ha alone (Table 4)): 0%
- Mean % weed control ([8]; 28DAA, 8 g ai/ha alone): 0.0% and 6.7%
- % Visual Weed Control ([8]; 28DAA, 8 g ai/ha alone (Table 4)): 0%
- Mean % weed control ([8]; 28DAA, 13.5 g ai/ha alone): 0.0%
- Mean % weed control ([8]; 28DAA, 27 g ai/ha alone): 0.0%

Structure (SMILES): COc1cc(OC)nc(NC(=O)NS(=O)(=O)c2c(-c3nnn(C)n3)cnn2C)n1 [Azimsulfuron, 1-(4,6-dimethoxypyrimidin-2-yl)-3-[1-methyl-4-(2-methyl-2H-tetrazol-5-yl)pyrazol-5-ylsulfonyl]urea]
- Mean % weed control ([2]; 14DAA, 10 g ai/ha alone): 0.0%
- Mean % weed control ([2]; 14DAA, 20 g ai/ha alone): 0.0%
- Mean % weed control ([8]; 7DAA, 40 g ai/ha alone): 89.0%

Structure (SMILES): COc1cc(OC)nc(Oc2cccc(Oc3nc(OC)cc(OC)n3)c2C(=O)O)n1 [Bispyribac-Sodium, bispyribac-sodium]
- Mean % weed control ([8]; 7DAA, 20 g ai/ha alone): 53.3%
- Mean % weed control ([8]; 7DAA, 40 g ai/ha alone): 76.7%
- Mean % weed control ([8]; 14DAA, 20 g ai/ha alone): 35.0%
- Mean % weed control ([8]; 28DAA, 20 g ai/ha alone): 20.0%
- Mean % weed control ([8]; 28DAA, 40 g ai/ha alone): 88.3%
